Results published in US20220356174A1, “PYRIDIN-2-ONE COMPOUNDS USEFUL AS SMARCA2 ANTAGONISTS” (Epizyme, Inc., priority 2018, published 2022).
Like-named read-outs stand apart in the source and are kept apart here.

Key:
[1] = target: T1, FL-SMARCA2 (full-length human SMARCA2 isoform 1) (Homo sapiens, UniProt P51531); experiment: SMARCA2 ATPase activity assay (ADP-Glo, chicken mononucleosome substrate); type: biochemical; conditions: ATPase assay, enzyme 5 nM, ATP 250 uM, chicken mononucleosome 10 nM, 30 min preincubation
T1 construct: FLAG tag (YKDDDDK) (C); made in house; host or cells: Sf21 insect cells (baculovirus, pFastBacI)

A549 cells = experiment: High-throughput proliferation (HTP) assay for A549 cells (CellTiter-Glo, 7 days); type: cell-based; conditions: Homo sapiens, 168 h, read-out: A549 SMARCA2 IC50
Experimental: Thawing vials: A549 cells (ATCC #CCL-185™) were thawed from a cryovial containing approximately 1.6×10^6 cells frozen in 70% F12K medium, 20% HI-FBS and 10% DMSO. Cells were thawed by submerging the bottom half of the vial in a 37° C. water bath and gently flicked until almost thawed. The cells were transferred into a 15 mL conical tube containing 9 mL of F12K medium+10% HI-FBS and then centrifuged at 200×g for 4 min before drawing off the media without disturbing the cell pellet in order to remove the DMSO. The cells were resuspended again in 15 mL of F12K fresh complete media+10% HI-FBS and grown up in a T75 flask at 37° C. with 5% CO2 Incubator. Viability was measured to obtain baseline.
Frozen stock vials preparation: The cell culture was transferred to a 50 mL conical tube, spun down to remove medium, and resuspended at 1-2×10^6 cells/mL in complete medium containing 10% DMSO. The culture was then stored for 24 hours at −80 degree C., (with the initial rate of freezing is −1 degree C. per minute in a freezing container), then transferred and stored in liquid nitrogen.
(§1) Routine subculture: Sub-confluent cultures (70-80%) were split every 4 days, seeding out at 1-2×10^6 cells/75 cm^2.
Day 0: Assay ready plates were prepared by dispensing 50 nL of compound or DMSO in the appropriate wells of 384-well white CulturPlates using Echo550. Using the Multiflo, A549 cells were plated at 50 μL/well in F12K complete media+10% HI-FBS+1% pen/strep at cell density determined [1,250 cells/mL (62.5 cells/well)] from growth curve.
Treated cells were incubated at 37° C., 5% CO2, relative humidity >90% for 7 days. CellTiter-Glo (CTG) ATP detection reagent was prepared according to manufacturer's specifications. Cell assay plates were removed from the incubator and brought to room temperature (RT). Using the MultiDrop liquid handler, 30 μL of CTG were added per well. Plates were placed on the multidrop dispenser shake for 5 seconds at room temperature (RT). Plates were incubated for 30 minutes in the dark at RT before measuring luminescence using the Envison2104.
Data analysis: Using the DMSO control wells as the 0% inhibition (high signal) control and the 10 μM Doxorubicin control wells as the 100% inhibition (low signal) control, percent inhibition EC50s (inflection point) and IC50 s were calculated for the compound dose responses.

H358 cells = experiment: High-throughput proliferation (HTP) assay for H358 cells (CellTiter-Glo, 7 days); type: cell-based; conditions: Homo sapiens, NCI-H358, 168 h, read-out: H358 SMARCA2 IC50
Experimental: Thawing vials: H358 cells (ATCC #CRL-5807™) were thawed from a cryovial containing approximately 1.6×10^6 cells frozen in 70% RPMI 1640 medium, 20% HI-FBS and 10% DMSO. Cells were thawed by submerging the bottom half of the vial in a 37° C. water bath and gently flicked until almost thawed. The cells were removed and transferred into a 15 mL conical tube containing 9 mL RPMI 1640 medium+10% HI-FBS and then centrifuged 200×g for 4 min before drawing off the media without disturbing the cell pellet to remove the DMSO. The cells were resuspended again in 15 mL of RPMI 1640 fresh complete media+10% HI-FBS and grown up in a T75 flask at 37° C. with 5% CO2 Incubator. Viability was measured to obtain baseline.
Preparing frozen stock vials: Cell density was counted in a stock flask. The culture was transferred to a 50 mL conical tube and spun down to remove medium, and then resuspend at 1-2×10^6 cells/mL in complete medium containing 10% DMSO and transferred to a 1 mL per vial.
as §1
Day 0: Assay ready plates were prepared by dispensing 50 nL of compound stock or DMSO in the appropriate wells of 384-well white CulturPlates using Echo550. Using the Multiflo, H358 cells at 50 μL/well were plated in RPMI 1640 complete media+10% HI-FBS+1% pen/strep at cell density determined [20,000 cells/mL (1,000 cells/well)] from growth curve. Treated cells were inclubated at 37° C., 5% CO2, relative humidity >90% for 7 days. CellTiter-Glo (CTG) ATP detection reagent was prepared according to manufacturer's specifications. Cell assay plates were removed from incubator and bring to room temperature (RT).
Using the MultiDrop liquid handler, 30 μL of CTG were added per well. Plates were placed on the multidrop dispenser shake for 5 seconds at RT. Plates were incubated for 30 minutes in the dark at RT before measuring luminescence using the Envison2104.
Data analysis: Using the DMSO control wells as the 0% inhibition (high signal) control and the 10 uM Doxorubicin control wells as the 100% inhibition (low signal) control, percent inhibition EC50s (inflection point) and IC50s were calculated for the compound dose responses.

FL-SMARCA4 = FL-SMARCA4 (Homo sapiens, UniProt P51532); experiment: SMARCA4 ATPase activity assay (ADP-Glo, chicken mononucleosome substrate)
[2] = FL-SMARCA4 IC>50, Table 3c.2, ATPase assay, enzyme 5 nM, ATP 250 uM, chicken mononucleosome 10 nM, 30 min preincubation
[3] = Table 3d.1, read-out: FL-SMARCA2 IC>50

T1 sequence (P51531 with tags, fused parts or gaps): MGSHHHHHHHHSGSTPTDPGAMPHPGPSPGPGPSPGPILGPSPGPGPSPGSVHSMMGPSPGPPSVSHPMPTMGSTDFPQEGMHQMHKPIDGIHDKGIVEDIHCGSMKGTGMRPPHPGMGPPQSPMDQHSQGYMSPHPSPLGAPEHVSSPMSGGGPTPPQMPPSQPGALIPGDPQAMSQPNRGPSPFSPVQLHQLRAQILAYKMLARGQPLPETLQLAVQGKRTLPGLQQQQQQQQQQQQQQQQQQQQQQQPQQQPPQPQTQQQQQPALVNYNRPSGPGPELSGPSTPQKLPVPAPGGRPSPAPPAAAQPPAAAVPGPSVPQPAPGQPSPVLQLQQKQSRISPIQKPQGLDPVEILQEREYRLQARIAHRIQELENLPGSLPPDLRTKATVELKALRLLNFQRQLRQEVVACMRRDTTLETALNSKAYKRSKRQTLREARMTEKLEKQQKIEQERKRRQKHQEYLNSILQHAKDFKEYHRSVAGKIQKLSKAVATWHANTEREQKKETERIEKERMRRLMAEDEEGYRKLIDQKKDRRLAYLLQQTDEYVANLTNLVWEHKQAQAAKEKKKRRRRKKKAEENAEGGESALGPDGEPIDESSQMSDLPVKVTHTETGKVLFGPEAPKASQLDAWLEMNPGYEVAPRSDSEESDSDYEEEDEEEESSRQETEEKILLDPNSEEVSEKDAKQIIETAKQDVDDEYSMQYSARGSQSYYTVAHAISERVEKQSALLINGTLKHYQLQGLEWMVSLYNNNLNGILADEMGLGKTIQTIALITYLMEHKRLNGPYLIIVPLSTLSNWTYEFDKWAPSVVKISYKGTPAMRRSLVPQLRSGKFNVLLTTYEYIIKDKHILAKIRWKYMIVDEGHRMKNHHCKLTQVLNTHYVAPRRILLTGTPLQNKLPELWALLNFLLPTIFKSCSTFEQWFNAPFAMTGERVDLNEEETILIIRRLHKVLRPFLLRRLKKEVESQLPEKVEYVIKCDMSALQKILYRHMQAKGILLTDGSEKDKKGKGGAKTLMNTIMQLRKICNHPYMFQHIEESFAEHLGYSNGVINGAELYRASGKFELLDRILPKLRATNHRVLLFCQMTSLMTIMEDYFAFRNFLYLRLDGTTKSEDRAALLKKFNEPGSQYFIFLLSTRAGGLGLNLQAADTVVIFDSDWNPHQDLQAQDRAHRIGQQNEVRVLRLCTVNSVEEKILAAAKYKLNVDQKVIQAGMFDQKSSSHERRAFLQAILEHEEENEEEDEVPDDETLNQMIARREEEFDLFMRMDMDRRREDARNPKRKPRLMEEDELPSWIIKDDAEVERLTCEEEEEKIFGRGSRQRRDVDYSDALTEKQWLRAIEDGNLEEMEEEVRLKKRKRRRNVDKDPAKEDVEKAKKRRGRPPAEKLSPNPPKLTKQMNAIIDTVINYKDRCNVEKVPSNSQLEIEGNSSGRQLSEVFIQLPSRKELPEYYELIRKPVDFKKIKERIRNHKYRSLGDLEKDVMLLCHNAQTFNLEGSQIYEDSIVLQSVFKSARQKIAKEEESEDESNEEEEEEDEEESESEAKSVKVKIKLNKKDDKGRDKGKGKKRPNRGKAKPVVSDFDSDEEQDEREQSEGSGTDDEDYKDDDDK
Chain of FL-SMARCA4 (P51532 whole entry): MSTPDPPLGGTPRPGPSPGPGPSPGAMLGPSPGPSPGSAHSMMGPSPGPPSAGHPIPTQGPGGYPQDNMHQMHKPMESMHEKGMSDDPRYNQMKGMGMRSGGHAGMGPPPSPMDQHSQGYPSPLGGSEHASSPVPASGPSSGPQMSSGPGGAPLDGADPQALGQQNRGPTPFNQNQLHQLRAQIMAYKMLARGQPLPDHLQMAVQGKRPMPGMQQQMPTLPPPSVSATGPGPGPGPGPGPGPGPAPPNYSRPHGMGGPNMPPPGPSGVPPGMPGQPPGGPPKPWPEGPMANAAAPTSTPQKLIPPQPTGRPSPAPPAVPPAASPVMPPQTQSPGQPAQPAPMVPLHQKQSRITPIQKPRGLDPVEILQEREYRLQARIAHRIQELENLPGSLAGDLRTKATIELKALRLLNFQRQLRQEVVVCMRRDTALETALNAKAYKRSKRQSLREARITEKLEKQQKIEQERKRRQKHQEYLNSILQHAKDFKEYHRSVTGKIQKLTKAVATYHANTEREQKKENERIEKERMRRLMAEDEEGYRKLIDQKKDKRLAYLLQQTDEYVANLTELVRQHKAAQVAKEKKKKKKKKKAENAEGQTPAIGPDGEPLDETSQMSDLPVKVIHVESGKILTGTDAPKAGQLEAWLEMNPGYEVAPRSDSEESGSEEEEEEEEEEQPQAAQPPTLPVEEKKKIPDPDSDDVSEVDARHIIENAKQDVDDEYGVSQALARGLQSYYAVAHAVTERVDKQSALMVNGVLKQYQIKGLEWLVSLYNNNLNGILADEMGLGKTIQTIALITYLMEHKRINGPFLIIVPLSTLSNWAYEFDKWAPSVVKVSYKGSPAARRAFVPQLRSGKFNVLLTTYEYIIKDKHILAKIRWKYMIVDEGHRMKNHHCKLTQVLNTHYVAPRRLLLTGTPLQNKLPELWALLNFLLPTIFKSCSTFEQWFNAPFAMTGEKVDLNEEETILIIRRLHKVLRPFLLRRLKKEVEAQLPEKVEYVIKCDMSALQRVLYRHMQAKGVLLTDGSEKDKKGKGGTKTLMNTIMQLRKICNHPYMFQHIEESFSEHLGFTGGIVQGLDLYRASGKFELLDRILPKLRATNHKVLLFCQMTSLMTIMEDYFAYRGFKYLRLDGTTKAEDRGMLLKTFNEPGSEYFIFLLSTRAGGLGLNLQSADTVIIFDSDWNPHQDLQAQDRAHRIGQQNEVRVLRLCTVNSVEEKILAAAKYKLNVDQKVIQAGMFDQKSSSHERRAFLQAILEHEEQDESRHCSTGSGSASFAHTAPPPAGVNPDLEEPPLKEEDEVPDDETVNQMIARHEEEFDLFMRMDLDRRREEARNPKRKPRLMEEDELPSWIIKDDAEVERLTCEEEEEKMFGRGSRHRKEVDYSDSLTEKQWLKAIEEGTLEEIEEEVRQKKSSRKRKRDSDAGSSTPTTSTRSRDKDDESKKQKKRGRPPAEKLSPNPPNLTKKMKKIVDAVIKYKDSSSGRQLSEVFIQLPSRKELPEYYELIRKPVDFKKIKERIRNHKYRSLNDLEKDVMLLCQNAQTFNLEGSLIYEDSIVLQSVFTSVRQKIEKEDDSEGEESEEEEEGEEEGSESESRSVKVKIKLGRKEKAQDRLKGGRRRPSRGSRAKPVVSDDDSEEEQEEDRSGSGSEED

IC50 ([1]; Table 3c.1)	IC50 (A549 cells)	IC50 (H358 cells)	IC50 (FL-SMARCA4; [2])	IC50 [1, 3]	IC50 (FL-SMARCA4; FL-SMARCA4 IC50)	Compound
0.0285 µM	1.16 µM	> 10 µM	0.0759 µM			Cn1cc(C#Cc2cc(C(=O)Nc3cc(F)c(=O)n(CC(F)F)c3)sc2Cl)cn1 [Compound 5c]
0.698 µM	3.7 µM	8.76 µM	0.905 µM			O=C(Nc1cc(F)c(=O)n(CC(F)F)c1)c1cc(C#Cc2ccc(Cl)cc2)c(Cl)s1 [Compound 35c]
0.078 µM	1.37 µM	> 10 µM	0.143 µM			Cc1ncc(C#Cc2cc(C(=O)Nc3cc(F)c(=O)n(CC(F)F)c3)sc2Cl)s1 [Compound 39c]
0.0995 µM	2.83 µM	> 10 µM	0.259 µM			O=C(Nc1cc(F)c(=O)n(CC(F)F)c1)c1cc(C#Cc2cnccn2)c(Cl)s1 [Compound 40c]
0.0827 µM	4.27 µM	> 10 µM	0.25 µM			O=C(Nc1cc(F)c(=O)n(CC(F)F)c1)c1cc(C#Cc2ccccc2)c(Cl)s1 [Compound 41c]
0.203 µM	5.08 µM	> 10 µM	0.477 µM			COc1cccc(C#Cc2cc(C(=O)Nc3cc(F)c(=O)n(CC(F)F)c3)sc2Cl)c1 [Compound 42c]
0.0452 µM	1.92 µM	> 10 µM	0.166 µM			CCn1cc(C#Cc2cc(C(=O)Nc3cc(F)c(=O)n(CC(F)F)c3)sc2Cl)cn1 [Compound 54c]
0.0778 µM	3.78 µM	> 10 µM	0.269 µM			O=C(Nc1cc(F)c(=O)n(CC(F)F)c1)c1cc(C#Cc2cccnn2)c(Cl)s1 [Compound 55c]
	> 10 µM	> 10 µM		0.0926 µM	0.246 µM	CNC(=O)c1cc(C#Cc2cc(C(=O)Nc3cc(F)c(=O)n(CC(F)F)c3)sc2Cl)on1 [Compound 55d]
0.297 µM	4.4 µM	9.02 µM	1.04 µM			O=C(Nc1cc(F)c(=O)n(CC(F)F)c1)c1cc(C#Cc2cccc(Cl)c2)c(Cl)s1 [Compound 56c]
0.0209 µM	3.61 µM	> 10 µM	0.0999 µM			NC(=O)c1cccc(C#Cc2cc(C(=O)Nc3cc(F)c(=O)n(CC(F)F)c3)sc2Cl)c1 [Compound 57c]
0.132 µM	1.19 µM	2.03 µM	0.379 µM			O=C(Nc1cc(F)c(=O)n(CC(F)F)c1)c1cc(C#Cc2ccncn2)c(Cl)s1 [Compound 59c]
0.251 µM	> 10 µM	> 10 µM	0.492 µM			Cn1cnc(C#Cc2cc(C(=O)Nc3cc(F)c(=O)n(CC(F)F)c3)sc2Cl)c1 [Compound 60c]
	3.65 µM	> 10 µM		0.018 µM	0.0363 µM	Cn1cc(C#Cc2cc(C(=O)Nc3cc(F)c(=O)n(CC(F)F)c3)sc2Cl)ccc1=O [Compound 60d]
0.0267 µM	1.51 µM	> 10 µM	0.0867 µM			Cc1nc(C#Cc2cc(C(=O)Nc3cc(F)c(=O)n(CC(F)F)c3)sc2Cl)cs1 [Compound 61c]
	4.33 µM	> 10 µM		0.197 µM	0.655 µM	COc1cncc(C#Cc2cc(C(=O)Nc3cc(F)c(=O)n(CC(F)F)c3)sc2Cl)c1 [Compound 61d]
0.352 µM	> 10 µM	> 10 µM				Cc1nnc(C#Cc2cc(C(=O)Nc3cc(F)c(=O)n(CC(F)F)c3)sc2Cl)[nH]1 [Compound 127c]
	> 10 µM	8.74 µM				Cn1cncc1C#Cc1cc(C(=O)Nc2cc(F)c(=O)n(CC(F)F)c2)sc1Cl [Compound 330]

Second part, the compound before the results:

Compound	IC50 ([1]; Table 3c.1)	IC50 (A549 cells)	IC50 (H358 cells)	IC50 (FL-SMARCA4; [2])	IC50 [1, 3]	IC50 (FL-SMARCA4; FL-SMARCA4 IC50)
O=C(Nc1cc(F)c(=O)n(CC(F)F)c1)c1cc(C#CC2CCOCC2)c(Cl)s1 [Compound 22c]	0.0301 µM	0.664 µM	> 10 µM	0.0608 µM		
O=C(Nc1cc(F)c(=O)n(CC(F)F)c1)c1cc(F)c(C(F)(F)F)s1 [Compound 25c]	0.0142 µM	0.614 µM	> 10 µM			
N#Cc1cccc(C#Cc2cc(C(=O)Nc3cc(F)c(=O)n(CC(F)F)c3)sc2Cl)c1 [Compound 34c]	0.0938 µM	1.46 µM	> 10 µM	0.233 µM		
O=C(Nc1cc(F)c(=O)n(CC(F)F)c1)c1cc(C(F)(F)F)c(Cl)s1 [Compound 37c]	0.482 µM	9.05 µM	> 10 µM	2.49 µM		
N#Cc1ccc(C#Cc2cc(C(=O)Nc3cc(F)c(=O)n(CC(F)F)c3)sc2Cl)cc1 [Compound 43c]	0.13 µM	2.94 µM	> 10 µM	0.329 µM		
O=C(Nc1ccc(=O)n(CC(F)F)c1)c1cc(F)c(Cl)s1 [Compound 45c]	0.0981 µM	4.26 µM	> 10 µM	0.232 µM		
O=C(Nc1cc(F)c(=O)n(CC(F)F)c1)c1cc(Cl)c(Cl)s1 [Compound 47c]	0.065 µM	1.41 µM	> 10 µM	0.177 µM		
O=C(Nc1cc(F)c(=O)n(CC(F)F)c1)c1sc(C(F)(F)F)cc1Cl [Compound 48c]	25.3 µM	> 10 µM	> 10 µM	> 50 µM		
N#Cc1cc(C(=O)Nc2cc(C#N)c(=O)n(CC(F)F)c2)sc1C(F)(F)F [Compound 56d]		6.25 µM	> 10 µM		0.0984 µM	0.535 µM
CC(=O)NC1COCC(C#Cc2cc(C(=O)Nc3cc(F)c(=O)n(CC(F)F)c3)sc2Cl)C1 (centres unmarked) [Compound 57d]		> 10 µM	> 10 µM		0.0516 µM	0.191 µM
O=C(Nc1cc(F)c(=O)n(CC(F)F)c1)c1cc(C#CC2CCOC2)c(Cl)s1 (centres unmarked) [Compound 58c]	0.0447 µM	1.5 µM	> 10 µM	0.178 µM		
O=C1Cc2ncc(C#Cc3cc(C(=O)NC4=NC(CC(F)F)C(=O)C(F)=C4)sc3Cl)cc2N1 (centres unmarked) [Compound 58d]		> 10 µM	> 10 µM		0.0619 µM	0.102 µM
O=C(Nc1cc(Cl)c(=O)n(CC(F)F)c1)c1cc(Cl)c(C(F)(F)F)s1 [Compound 79d]		3.65 µM	> 10 µM		0.0432 µM	
O=C(Nc1cc(F)c(=O)n(CC(F)F)c1)c1cc(C#Cc2ccnc(-c3ncco3)c2)c(Cl)s1 [Compound 150c]		0.932 µM	> 10 µM	0.0145 µM		
